In the NIST ThermoML archive (doi:10.1021/je060271a):
Values joined by “and” are separate entries in the source; they are usually repeats but may differ in a detail not shown here. Equal entries are not always repeated. Numbers after ± are expanded uncertainties.

Conditions: 303.16 K, Liquid, Vibrating tube method

CCCCCC(=O)OCC(COC(=O)CCCCC)(COC(=O)CCCCC)COC(=O)CCCCC [pentaerythritol tetrahexanoate]
Conditions	mass density
10818 kPa	995.1 ± 1.2 kg/m3
10847 kPa	995.1 ± 1.2 kg/m3
10876 kPa	995.3 ± 1.2 kg/m3
10911 kPa	995.2 ± 1.2 kg/m3
10941 kPa	995.3 ± 1.2 kg/m3
10972 kPa	995.3 ± 1.2 kg/m3
11002 kPa	995.2 ± 1.2 kg/m3
11031 kPa	995.3 ± 1.2 kg/m3
11066 kPa	995.3 ± 1.2 kg/m3
11454 kPa	995.6 ± 1.2 kg/m3
11487 kPa	995.6 ± 1.2 kg/m3
11513 kPa	995.6 ± 1.2 kg/m3
11540 kPa	995.6 ± 1.2 kg/m3
11571 kPa	995.7 ± 1.2 kg/m3
11596 kPa	995.6 ± 1.2 kg/m3
11626 kPa	995.6 ± 1.2 kg/m3
11790 kPa	995.8 ± 1.2 kg/m3
11810 kPa	995.6 ± 1.2 kg/m3
11820 kPa	995.9 ± 1.2 kg/m3
11829 kPa	995.8 ± 1.2 kg/m3
11924 kPa	995.8 ± 1.2 kg/m3
11933 kPa	995.7 ± 1.2 kg/m3
11944 kPa	995.8 ± 1.2 kg/m3
11958 kPa	995.9 ± 1.2 kg/m3
11979 kPa	995.9 ± 1.2 kg/m3
11996 kPa	996 ± 1.2 kg/m3
12017 kPa	996 ± 1.2 kg/m3
12842 kPa	996.5 ± 1.2 kg/m3
12884 kPa	996.5 ± 1.2 kg/m3
13029 kPa	996.6 ± 1.2 kg/m3
13048 kPa	996.5 ± 1.2 kg/m3
13072 kPa	996.5 ± 1.2 kg/m3
13092 kPa	996.6 ± 1.2 kg/m3
13112 kPa	996.6 ± 1.2 kg/m3
13136 kPa	996.7 ± 1.2 kg/m3
13156 kPa	996.5 ± 1.2 kg/m3
13176 kPa	996.6 ± 1.2 kg/m3
13200 kPa	996.7 ± 1.2 kg/m3
13220 kPa	996.6 ± 1.2 kg/m3
13241 kPa	996.7 ± 1.2 kg/m3
13266 kPa	996.7 ± 1.2 kg/m3
13286 kPa	996.7 ± 1.2 kg/m3
14924 kPa	997.7 ± 1.2 kg/m3
14953 kPa	997.6 ± 1.2 kg/m3
14977 kPa	997.7 ± 1.2 kg/m3
15002 kPa	997.7 ± 1.2 kg/m3
15135 kPa	997.8 ± 1.2 kg/m3
15160 kPa	997.8 ± 1.2 kg/m3
15189 kPa	997.8 ± 1.2 kg/m3
15214 kPa	997.8 ± 1.2 kg/m3
15239 kPa	997.8 ± 1.2 kg/m3
15264 kPa	997.9 ± 1.2 kg/m3
15318 kPa	997.9 ± 1.2 kg/m3
15342 kPa	997.9 ± 1.2 kg/m3
15371 kPa	997.9 ± 1.2 kg/m3
15394 kPa	997.9 ± 1.2 kg/m3
15422 kPa	997.9 ± 1.2 kg/m3
15445 kPa	998 ± 1.2 kg/m3
15468 kPa	998 ± 1.2 kg/m3
15492 kPa	998 ± 1.2 kg/m3
15520 kPa	998 ± 1.2 kg/m3
15543 kPa	998 ± 1.2 kg/m3
15567 kPa	997.9 ± 1.2 kg/m3
15595 kPa	998 ± 1.2 kg/m3
15618 kPa	998 ± 1.2 kg/m3
15865 kPa	998.4 ± 1.2 kg/m3
16816 kPa	998.8 ± 1.2 kg/m3
17240 kPa	999 ± 1.2 kg/m3
17241 kPa	999 ± 1.2 kg/m3
17243 kPa	999 ± 1.2 kg/m3
17245 kPa	999 ± 1.2 kg/m3
17258 kPa	999.1 ± 1.2 kg/m3
17279 kPa	999 ± 1.2 kg/m3
17302 kPa	999 ± 1.2 kg/m3
17313 kPa	999 ± 1.2 kg/m3
17343 kPa	999.1 ± 1.2 kg/m3
17353 kPa	999.1 ± 1.2 kg/m3 and 999 ± 1.2 kg/m3
17354 kPa	999.1 ± 1.2 kg/m3 and 999.2 ± 1.2 kg/m3
17601 kPa	999.3 ± 1.2 kg/m3
17625 kPa	999.2 ± 1.2 kg/m3
17654 kPa	999.2 ± 1.2 kg/m3
17675 kPa	999.2 ± 1.2 kg/m3
17704 kPa	999.3 ± 1.2 kg/m3
17727 kPa	999.3 ± 1.2 kg/m3
17750 kPa	999.5 ± 1.2 kg/m3
17777 kPa	999.3 ± 1.2 kg/m3
17799 kPa	999.3 ± 1.2 kg/m3
17825 kPa	999.3 ± 1.2 kg/m3
17847 kPa	999.3 ± 1.2 kg/m3
17869 kPa	999.3 ± 1.2 kg/m3
17891 kPa	999.4 ± 1.2 kg/m3
18682 kPa	999.8 ± 1.2 kg/m3
18706 kPa	999.9 ± 1.2 kg/m3
18735 kPa	999.9 ± 1.2 kg/m3
18759 kPa	999.9 ± 1.2 kg/m3
18784 kPa	999.9 ± 1.2 kg/m3
18808 kPa	1000 ± 1.2 kg/m3
18838 kPa	999.9 ± 1.2 kg/m3
18862 kPa	1000 ± 1.2 kg/m3
18892 kPa	1000 ± 1.2 kg/m3
23429 kPa	1002.6 ± 1.2 kg/m3
23459 kPa	1002.6 ± 1.2 kg/m3
23495 kPa	1002.6 ± 1.2 kg/m3
23525 kPa	1002.6 ± 1.2 kg/m3
23561 kPa	1002.7 ± 1.2 kg/m3
23592 kPa	1002.6 ± 1.2 kg/m3
23622 kPa	1002.8 ± 1.2 kg/m3
23653 kPa	1002.7 ± 1.2 kg/m3
23690 kPa	1002.8 ± 1.2 kg/m3
23720 kPa	1002.8 ± 1.2 kg/m3
23757 kPa	1002.7 ± 1.2 kg/m3
23788 kPa	1002.8 ± 1.2 kg/m3
23820 kPa	1002.9 ± 1.2 kg/m3
23856 kPa	1002.8 ± 1.2 kg/m3
23888 kPa	1002.8 ± 1.2 kg/m3
23920 kPa	1002.9 ± 1.2 kg/m3
23958 kPa	1002.9 ± 1.2 kg/m3
23990 kPa	1002.8 ± 1.2 kg/m3
24022 kPa	1002.9 ± 1.2 kg/m3
24054 kPa	1002.8 ± 1.2 kg/m3
24093 kPa	1003 ± 1.2 kg/m3
24125 kPa	1003 ± 1.2 kg/m3
24164 kPa	1003 ± 1.2 kg/m3
24196 kPa	1003.1 ± 1.2 kg/m3
24226 kPa	1003 ± 1.2 kg/m3
24255 kPa	1003.1 ± 1.2 kg/m3
24419 kPa	1003.2 ± 1.2 kg/m3
24447 kPa	1003.2 ± 1.2 kg/m3
24481 kPa	1003.2 ± 1.2 kg/m3
24509 kPa	1003.2 ± 1.2 kg/m3
24537 kPa	1003.1 ± 1.2 kg/m3
24571 kPa	1003.3 ± 1.2 kg/m3
24599 kPa	1003.3 ± 1.2 kg/m3
24628 kPa	1003.3 ± 1.2 kg/m3
24656 kPa	1003.4 ± 1.2 kg/m3
24691 kPa	1003.3 ± 1.2 kg/m3
24720 kPa	1003.3 ± 1.2 kg/m3
24749 kPa	1003.3 ± 1.2 kg/m3
24778 kPa	1003.3 ± 1.2 kg/m3
24812 kPa	1003.4 ± 1.2 kg/m3
24935 kPa	1003.4 ± 1.2 kg/m3
25029 kPa	1003.4 ± 1.2 kg/m3
25058 kPa	1003.4 ± 1.2 kg/m3
25094 kPa	1003.6 ± 1.2 kg/m3
